Assay results published in US11524950B2, “Treatment of immune-related and inflammatory diseases” (Celgene Corporation, priority 2012, dated 2022).

Legend:
[1] = system: IgG; assay: IgG production in normal B cell / PBMC differentiation cultures (ELISA); conditions: Homo sapiens
[2] = system: IL-2; assay: T-cell costimulation: IL-2 production (immobilized anti-CD3, ELISA); format: cell-based; conditions: Homo sapiens, 48 h, read-out: EC50 for co-stimulated IL-2 production by T cells
Description: CRBN ubiquitination was measured in HEK293T cells, which were transfected with an amino-terminal His-biotin-tagged CRBN construct, then preincubated with compounds for one hour followed by treatment with the MG132 proteasome inhibitor (to arrest degradation of ubiquitinated proteins). Cells were lysed and processed to measure CRBN ubiquitination by SDS-PAGE and immunoblot analysis using an anti-ubiquitin antibody. Cell proliferation studies were conducted in enalidomide-sensitive and refractory multiple myeloma cells. […] T-cell costimulation was measured in purified primary human T cells stimulated using immobilized anti-CD3 antibody in cell culture for 2 days, and cytokine secretion was measured by ELISA.

[3] = system: IgG; assay: IgG production by SLE patient PBMC (ELISA); conditions: Homo sapiens, read-out: IgG IC50 (nM) SLE (n = 3)
[4] = target: T1, CRBN (Homo sapiens, UniProt Q96SW2); assay: Competitive CRBN binding with thalidomide analog-conjugated beads (U266 extracts); conditions: preincubation at 3 uM
T1 construct: endogenous in cells; host or cells: U266 multiple myeloma cells (cell extracts)
Description: Binding studies to CRBN were conducted using thalidomide analog-conjugated beads in a competitive assay. […] Affinity beads coupled to a thalidomide acid analog were incubated with the U266 extracts and, after extensive washing of the beads, the bound proteins were eluted. CRBN binding to the thalidomide-coupled affinity beads was determined by quantitative CRBN immunoblot determination.

[5] = system: IgM; assay: IgM production by SLE patient PBMC (ELISA); conditions: Homo sapiens, read-out: IgM IC50 (nM) SLE (n = 3)
[6] = system: IgM; assay: IgM production in normal PBMC differentiation cultures (ELISA); conditions: Homo sapiens, read-out: IgM IC50 (nM) Normal (n = 3)
[7] = system: DBA/2 mice; assay: Bleomycin-induced dermal fibrosis mouse model (prevention); format: in vivo; conditions: 50 mg/kg, IP, QD, p<0.0001
Description: (§1) DBA/2 mice were used in this study. Eight animals were used per treatment group in the study. Mice were kept in the animal house under standard conditions with food and water ad libidum.
The vehicle, 0.5% carboxymethyl cellulose (CMC)/0.25% Tween 80, was prepared in distilled H2O and dissolved overnight on a magnetic stirrer (add 0.5 g CMC; Sigma #C9481) and 0.25 ml Tween 80 (Sigma #P8074) to 99.75 ml to make a total of 100 ml 0.5% CMC/0.25% Tween 80).
(§2) The compound was suspended, not dissolved, in this vehicle. The formulation was homogenized with a Teflon pestle and mortar (Potter-Elvehjem tissue grinder) using a motorized Eberbach tissue homogenizer. The daily drug stock concentration used in these studies was 3 mg/ml.
(§3) Bleomycin was obtained from the pharmacy of the University of Erlangen-Nuremberg and freshly prepared once a week. Skin fibrosis was induced in 6-week-old DBA mice by local intracutaneous injections of 100 μl of bleomycin dissolved in 0.9% NaCl, at a concentration of 0.5 mg/ml, every other day in defined areas of 1.5 cm^2 on the upper back.
The mouse model of bleomycin induced dermal fibrosis is widely used to evaluate anti-fibrotic therapeutics. In this model, a localized dermal fibrosis is induced by intradermal injections with bleomycin every other day for 3 weeks. This model resembles early, inflammatory stages of SSc. To evaluate potential effects on prevention of fibrosis, treatment was initiated simultaneously with the first bleomycin injection. […] Treatment consisted of administration of the vehicle (0.5% CMC/0.25% Tween 80). • Untreated bleomycin group: Intradermal injection of bleomycin for three weeks. […] Injection of Imatinib (50 mg/kg; IP, QD). […] See Akhmetshina A. et al., Arthritis Rheum 2009; 60(1):219-224.
(§4) Dermal thickness was determined by staining with hematoxylin and eosin and activated fibroblasts by using immunohistochemistry for alpha smooth muscle actin (α-SMA). The dermal thickness, as determined by the modified Rodnan Skin Score, is currently the most common primary outcome in human clinical trials for anti-fibrotic agents in SSc. […] Dermal thickness was analyzed with a Nikon Eclipse 80i microscope (Nikon, Badhoevedorp, The Netherlands) by measuring the maximal distance between the epidermal-dermal junction and the dermal-subcutaneous fat junction at 4 different skin sections in each mouse. […]
(§5) For quantification of myofibroblasts, skin sections were deparaffinized and incubated with 5% bovine serum albumin for 60 minutes. Cells positive for α-SMA were detected by incubation with monoclonal anti-α-SMA antibodies (clone 1A4; Sigma-Aldrich, Steinheim, Germany) for 2 hours at room temperature followed by incubation with 3% hydrogen peroxide for 10 minutes. […]

[8] = system: DBA/2 mice; assay: Bleomycin-induced dermal fibrosis mouse model (regression of established fibrosis); format: in vivo; conditions: 50 mg/kg, p<0.0001
Description: as §1, §2, §3
To evaluate regression of fibrosis, a modified model of bleomycin induced dermal fibrosis was used. Mice were pre-challenged with bleomycin to induce a robust skin fibrosis. One group received treatment with the test compound, while challenge with bleomycin was ongoing for additional three weeks. The outcome of this group was compared to mice challenged with bleomycin for six weeks (prevention of further progression) and to mice challenged with bleomycin for three weeks followed by NaCl for additional three weeks (induction of regression). The following groups were used in the regression study: • Control group: Intradermal injection of NaCl for six weeks. Control treatment consisted of administration of the vehicle. • Untreated bleomycin group 1 (regression): Intradermal injection of bleomycin for three weeks followed by intradermal injections of NaCl for another three weeks. Treatment consisted of administration of the vehicle. […]
as §4, §5

[9] = system: Tsk-1 mouse; assay: Tight skin-1 (Tsk-1) mouse model: hypodermal thickness and hydroxyproline; format: in vivo; conditions: 50 mg/kg; p≤0.001
From the text: First, the inhibitory effects of the compound on fibrosis in the Tsk-1 tight skin mouse model were also investigated.

[10] = PBMC, read-out: IgG IC50 (nM) Normal (n = 3)

Nc1cccc2c1C(=O)N(C1CCC(=O)NC1=O)C2=O (stereo not drawn) [pomalidomide]
IC50 [1, 10]: 63 nM
IC50 ([1]; read-out: IgG production IC50): 49 nM
EC50 [2]: 10 nM
IC50 [3]: 19 nM
less CRBN bound to the affinity beads [4]: approximately 50%
IC50 [5]: 3.8 nM
IC50 [6]: 17 nM

Cc1ccc(NC(=O)c2ccc(CN3CCN(C)CC3)cc2)cc1Nc1nccc(-c2cccnc2)n1 [Imatinib, reference compound]
reduction of dermal thickening ([7]; 3 weeks): 60±0.34%
reduction of myofibroblast numbers [7]: 81±0.11%
reduction of bleomycin induced dermal thickness [8]: 50±0.3%
reduction of myofibroblast numbers [8]: 78±0.15%
reduction of collagen content of the skin (hydroxyproline levels) [9]: 67%
reduction of hypodermal thickening [9]: 58%

Nc1cccc2c1CN(C1CCC(=O)NC1=O)C2=O (stereo not drawn) [lenalidomide]
IC50 ([1]; read-out: IgG production IC50): 320 nM

CCOc1cc([C@@H](CS(C)(=O)=O)N2C(=O)c3cccc(NC(C)=O)c3C2=O)ccc1OC [apremilast]
IC50 [1, 10]: > 10000 nM
IC50 [3]: > 10000 nM
IC50 [5]: > 10000 nM
IC50 [6]: > 10000 nM
